Structures are written as SMILES.

The target in the experiment is T1, human GPR131 (Homo sapiens, UniProt Q8TDU6).
T1 construct: expressed in transfected cells
T1 sequence (Q8TDU6 1-330): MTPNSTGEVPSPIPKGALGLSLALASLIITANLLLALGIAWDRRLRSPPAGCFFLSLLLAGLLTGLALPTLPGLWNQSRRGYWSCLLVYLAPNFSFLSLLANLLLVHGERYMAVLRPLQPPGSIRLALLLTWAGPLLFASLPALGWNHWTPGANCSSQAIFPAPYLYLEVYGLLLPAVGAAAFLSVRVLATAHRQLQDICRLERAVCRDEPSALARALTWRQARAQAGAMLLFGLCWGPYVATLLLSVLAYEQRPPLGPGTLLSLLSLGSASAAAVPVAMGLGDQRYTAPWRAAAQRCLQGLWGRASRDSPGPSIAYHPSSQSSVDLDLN
Put plainly: Stimulation of cAMP (agonism of GPR131), FRET cAMP assay. The experiment is classed as cell-based. Conditions: 0.5 h; 1.1 μM compound; compared to maximal stimulatory activity of lithocholic acid (LCA) determined at 3.3 μM; stable cell line expressing human GPR131; 37° C. for 30 minutes; read-out: Percent Activity @ 1.1 μM (of 3.3 uM LCA) (%). The method, then:
This assay was developed using a stable cell line expressing human GPR131.
To measure cAMP activity in response to GPR131 agonists, GPR131 cells suspended in DMEM/F12 medium with 1 mM IBMX were seeded in 384 well plates at 5000 cells per well. After incubating with test compounds at 37° C. for 30 minutes cAMP was measured using a fluorescene resonance energy transfer cAMP kit from Cis Bio (Bedford, Mass.) according to the manufacturer's instructions. Briefly, cells were lysed, and cAMP levels determined by competitive immunoassay using D2 labeled cAMP, and europium cryptate tagged anti cAMP antibody. Decreases in the FRET signal (fluorescence ratio (665 nm/620 […]) correspond to increases in intracellular cAMP levels.
Activities of test compounds in Table 1 below are expressed as percent activity at 1.1 μM compound compared to the maximal stimulatory activity of lithocholic acid (LCA) (determined at 3.3 μM LCA).
`Clc1ccc(Cl)c(-c2nc3ccccn3c2-c2nncn2-c2ccc3ncccc3c2)c1` [Compound 541, 6-(3-(2-(2,5-Dichlorophenyl)imidazo[1,2-a]pyridin-3-yl)-4H-1,2,4-triazol-4-yl)quinoline]: the activation at 1.1 µM stood at 93.9%.

`Cn1ncc2c(-n3cnnc3-c3c(-c4cc(Cl)ccc4Cl)nc4ccccn34)cccc21` [Compound 545, 4-(3-(2-(2,5-Dichlorophenyl)imidazo[1,2-a]pyridin-3-yl)-4H-1,2,4-triazol-4-yl)-1-methyl-1H-indazole]: the activation at 1.1 µM is 90.9%.

Turning to `Clc1ccc(-n2nnnc2-c2c(-c3cc(Cl)ccc3Cl)nc3occn23)cc1` [Compound 551, 5-(1-(4-Chlorophenyl)-1H-tetrazol-5-yl)-6-(2,5-dichlorophenyl)imidazo[2,1-b]oxazole], the activation at 1.1 µM stood at 95.7%.

Consider `Clc1ccc(-n2nnnc2-c2c(-c3cc(Cl)ccc3Cl)nc3ccccn23)cc1` [Compound 552, 3-(1-(4-Chlorophenyl)-1H-tetrazol-5-yl)-2-(2,5-dichlorophenyl)imidazo[1,2-a]pyridine], for which the activation at 1.1 µM was 100%.

For the molecule `Clc1ccc(-n2cnnc2-c2c(-c3cc(Cl)ccc3Cl)nc3ccccn23)cc1` [Compound 553, 3-(4-(4-Chlorophenyl)-4H-1,2,4-triazol-3-yl)-2-(2,5-dichlorophenyl)imidazo[1,2-a]pyridine], the activation at 1.1 µM was found to be 99.9%.

For the molecule `Clc1ccc(-n2ncnc2-c2c(-c3cc(Cl)ccc3Cl)nc3ccccn23)cc1` [Compound 554, 3-(1-(4-Chlorophenyl)-1H-1,2,4-triazol-5-yl)-2-(2,5-dichlorophenyl)imidazo[1,2-a]pyridine], the activation at 1.1 µM was 99.9%.

Take `Clc1ccc(-n2nnnc2-c2c(-c3cc(Cl)ccc3Cl)nc3cccnn23)cc1` [Compound 555, 3-(1-(4-Chlorophenyl)-1H-tetrazol-5-yl)-2-(2,5-dichlorophenyl)imidazo[1,2-b]pyridazine]: the activation at 1.1 µM stood at 100%.

With `Clc1ccc(-n2nnnc2-c2c(-c3cc(Cl)ccc3Cl)nc3cnccn23)cc1` [Compound 556, 3-(1-(4-Chlorophenyl)-1H-tetrazol-5-yl)-2-(2,5-dichlorophenyl)imidazo[1,2-a]pyrazine], the activation at 1.1 µM is 88.4%.

On to `Clc1ccc(-n2ccnc2-c2c(-c3ccccc3Cl)nc3ccccn23)cc1` [Compound 557, 2-(2-Chlorophenyl)-3-(1-(4-chlorophenyl)-1H-imidazol-2-yl)imidazo[1,2-a]pyridine], for which the activation at 1.1 µM worked out at 99.7%.

Take `Clc1ccc(-n2nnnc2-c2c(-c3cc(Cl)ccc3Cl)nc3n2CCCC3)cc1` [Compound 559, 3-(1-(4-Chlorophenyl)-1H-tetrazol-5-yl)-2-(2,5-dichlorophenyl)-5,6,7,8-tetrahydroimidazo[1,2-a]pyridine]: the activation at 1.1 µM came out at 94.6%.

`Clc1ccc(-n2ccnc2-c2c(-c3cc(Cl)ccc3Cl)nc3n2CCCC3)cc1` [Compound 560, 3-(1-(4-Chlorophenyl)-1H-imidazol-2-yl)-2-(2,5-dichlorophenyl)-5,6,7,8-tetrahydroimidazo[1,2-a]pyridine]: the activation at 1.1 µM was found to be 100%.

As to `Clc1ccc(-n2ccnc2-c2c(-c3cc(Cl)ccc3Cl)nc3cccnn23)cc1` [Compound 561, 3-(1-(4-Chlorophenyl)-1H-imidazol-2-yl)-2-(2,5-dichlorophenyl)imidazo[1,2-b]pyridazine], the activation at 1.1 µM was 100%.

In the case of `FC(F)(F)c1ccc(-n2nnnc2-c2c(-c3cc(Cl)ccc3Cl)nc3ccccn23)cc1` [Compound 562, 2-(2,5-Dichlorophenyl)-3-(1-(4-(trifluoromethyl)phenyl)-1H-tetrazol-5-yl)imidazo[1,2-a]pyridine], the activation at 1.1 µM worked out at 97.9%.

Take `FC(F)(F)c1ccc(-n2nnnc2-c2c(-c3cc(Cl)ccc3Cl)nc3cccnn23)cc1` [Compound 563, 2-(2,5-Dichlorophenyl)-3-(1-(4-(trifluoromethyl)phenyl)-1H-tetrazol-5-yl)imidazo[1,2-b]pyridazine]: the activation at 1.1 µM was found to be 99.5%.

Regarding `FC(F)(F)c1ccc(-n2ccnc2-c2c(-c3cc(Cl)ccc3Cl)nc3ccccn23)cc1` [Compound 564, 2-(2,5-Dichlorophenyl)-3-(1-(4-(trifluoromethyl)phenyl)-1H-imidazol-2-yl)imidazo[1,2-a]pyridine], the activation at 1.1 µM is 100%.

For the molecule `FC(F)(F)c1ccc(-n2ccnc2-c2c(-c3cc(Cl)ccc3Cl)nc3cccnn23)cc1` [Compound 565, 2-(2,5-Dichlorophenyl)-3-(1-(4-(trifluoromethyl)phenyl)-1H-imidazol-2-yl)imidazo[1,2-b]pyridazine], the activation at 1.1 µM worked out at 100%.

`N#Cc1ccc(-n2nnnc2-c2c(-c3cc(Cl)ccc3Cl)nc3ccccn23)cc1` [Compound 566, 4-(5-(2-(2,5-Dichlorophenyl)imidazo[1,2-a]pyridin-3-yl)-1H-tetrazol-1-yl)benzonitrile]: the activation at 1.1 µM was 99.7%.

On to `N#Cc1ccc(-n2ccnc2-c2c(-c3cc(Cl)ccc3Cl)nc3ccccn23)cc1` [Compound 567, 4-(2-(2-(2,5-Dichlorophenyl)imidazo[1,2-a]pyridin-3-yl)-1H-imidazol-1-yl)benzonitrile], for which the activation at 1.1 µM worked out at 99.9%.

As for `Clc1cccc(-c2nc3ccccn3c2-c2nncn2-c2ccc3cn[nH]c3c2)c1` [Compound 568, 6-(3-(2-(3-Chlorophenyl)imidazo[1,2-a]pyridin-3-yl)-4H-1,2,4-triazol-4-yl)-1H-indazole], the activation at 1.1 µM is 96%.
